Test results from ChEMBL document CHEMBL1152749, “Haemolytic activity, cytotoxicity and membrane cell permeabilization of semi-synthetic and natural lupane- and oleanane-type saponins” (Bioorg Med Chem, 2009).
pIC50: −log10 of the molar value.

Assays:
A549 [1] = experiment: Cell membrane permeabilization in human A549 cells assessed as drug level causing decrease in calcein fluorescence; type: ADME, cell-based
[2] = Cytotoxicity against human WS1 cells after 48 hrs by resazurin reduction test; type: cell-based; conditions: WS1, 48 h
[3] = Cell membrane permeabilization in human WS1 cells assessed as drug level causing decrease in calcein fluorescence; type: ADME, cell-based
DLD-1 [4] = experiment: Cytotoxicity against human DLD1 cells after 48 hrs by resazurin reduction test; type: functional, cell-based; conditions: DLD-1, 48 h
[5] = Toxicity in sheep erythrocytes assessed as induction of hemolysis; type: cell-based, Ovis aries, Erythrocyte; conditions: read-out: HD50 (the source's name)
A549 [6] = experiment: Cytotoxicity against human A549 cells after 48 hrs by resazurin reduction test; type: functional, cell-based; conditions: A549, 48 h
DLD-1 [7] = experiment: Cell membrane permeabilization in human DLD1 cells assessed as drug level causing decrease in calcein fluorescence; type: ADME, cell-based

| Structure (SMILES) | pIC50 (A549 [1]) | pIC50 [3] | pIC50 (DLD-1 [7]) | pIC50 [2] | pIC50 (DLD-1 [4]) | HC50 [5] [µM] | pIC50 (A549 [6]) |
| --- | --- | --- | --- | --- | --- | --- | --- |
| C[C@@H]1O[C@@H](O[C@H]2[C@H](O[C@H]3CC[C@@]4(C)[C@@H](CC[C@]5(C)[C@@H]4CC=C4[C@@H]6CC(C)(C)CC[C@]6(C(=O)O)CC[C@]45C)[C@]3(C)CO)OC[C@H](O)[C@@H]2O)[C@H](O)[C@H](O)[C@H]1O [ALPHA-HEDERIN] | 4.55 | 4.62 | 4.42 | 4.52 | 4.22 | 10 | 4.48 |
| CC1(C)CC[C@]2(C(=O)O)CC[C@]3(C)C(=CC[C@@H]4[C@@]5(C)CC[C@H](O)[C@@](C)(CO)[C@@H]5CC[C@]43C)[C@@H]2C1 [HEDERAGENIN] | < 3.70 | < 3.70 | < 3.70 | 4.11 | < 4.00 | > 100 | 4.41 |
| CC1(C)CC[C@]2(C(=O)O)CC[C@]3(C)C(=CC[C@@H]4[C@@]5(C)CC[C@H](O)C(C)(C)[C@@H]5CC[C@]43C)[C@@H]2C1 [OLEANOLIC_ACID] | < 3.70 | < 3.70 | < 3.70 | < 4.00 | < 4.00 | > 100 | 4.57 |

Continued, in another order:

| pIC50 (A549 [1]) | pIC50 [3] | pIC50 (DLD-1 [7]) | Structure (SMILES) | pIC50 [2] | pIC50 (DLD-1 [4]) | HC50 [5] [µM] | pIC50 (A549 [6]) |
| --- | --- | --- | --- | --- | --- | --- | --- |
| < 3.70 | < 3.70 | < 3.70 | C=C(C)[C@@H]1CC[C@]2(C(=O)O[C@@H]3O[C@H](CO)[C@@H](O)[C@H](O)[C@H]3O)CC[C@]3(C)[C@H](CC[C@@H]4[C@@]5(C)CC[C@H](O[C@@H]6OC[C@H](O)[C@H](O)[C@H]6O[C@@H]6O[C@@H](C)[C@H](O)[C@@H](O)[C@H]6O)C(C)(C)[C@@H]5CC[C@]43C)[C@@H]12 | < 4.30 | < 4.30 | > 100 | < 4.30 |
| 5.40 | 5.52 | 5.40 | C[C@@H]1O[C@@H](O[C@H]2[C@H](O[C@H]3CC[C@]4(C)[C@H]5CC=C6[C@@H]7CC(C)(C)CC[C@]7(C(=O)O)CC[C@@]6(C)[C@]5(C)CC[C@H]4C3(C)C)OC[C@H](O[C@@H]3O[C@H](CO)[C@@H](O)[C@H](O)[C@H]3O)[C@@H]2O)[C@H](O)[C@H](O)[C@H]1O [HEDERACOLCHISIDE A1] | 5.24 | 4.80 | 1.7 | 4.82 |
| 3.96 | 4.07 | 3.80 | C[C@@H]1O[C@@H](O[C@H]2[C@H](O[C@H]3CC[C@@]4(C)[C@@H](CC[C@]5(C)[C@@H]4CC=C4[C@@H]6CC(C)(C)CC[C@]6(C(=O)O)CC[C@]45C)[C@]3(C)CO)OC[C@H](O[C@@H]3O[C@H](CO)[C@@H](O)[C@H](O)[C@H]3O)[C@@H]2O)[C@H](O)[C@H](O)[C@H]1O [HEDERACOLCHISIDE A] | 4.24 | 4.21 | 22 | 4.23 |
| 4.19 | 3.99 | 4.05 | CC1(C)CC[C@]2(C(=O)O)CC[C@]3(C)C(=CC[C@@H]4[C@@]5(C)CC[C@H](O[C@@H]6O[C@H](CO)[C@@H](O)[C@H](O)[C@H]6O)[C@@](C)(CO)[C@@H]5CC[C@]43C)[C@@H]2C1 [Hederagenin-3-O-beta-D-glucopyranoside] | 4.49 | 4.23 | 16 | 4.23 |
